From PMC10709319, “Glycosyltransferase 8 domain-containing protein 1 (GLT8D1) is a UDP-dependent galactosyltransferase” (Scientific Reports, 2023)

Columns and labels:
[1] = target: T1, GLT8D1 (recombinant secretory glycosyltransferase 8 domain-containing protein 1) (Homo sapiens, UniProt Q68CQ7); assay: intrinsic tryptophan fluorescence DSF (nanoDSF); format: binding; conditions: 0.1 mM ligand, 1 mM MnCl2, 50 mM Tris-HCl pH 7.5; shift relative to Mn2+ alone
T1 construct: lumenal catalytic domain 52-371; GFP fusion kept; secreted from HEK293-F cells; N-glycosylated; expected mass 67,624 Da
T1 sequence (Q68CQ7 52-371): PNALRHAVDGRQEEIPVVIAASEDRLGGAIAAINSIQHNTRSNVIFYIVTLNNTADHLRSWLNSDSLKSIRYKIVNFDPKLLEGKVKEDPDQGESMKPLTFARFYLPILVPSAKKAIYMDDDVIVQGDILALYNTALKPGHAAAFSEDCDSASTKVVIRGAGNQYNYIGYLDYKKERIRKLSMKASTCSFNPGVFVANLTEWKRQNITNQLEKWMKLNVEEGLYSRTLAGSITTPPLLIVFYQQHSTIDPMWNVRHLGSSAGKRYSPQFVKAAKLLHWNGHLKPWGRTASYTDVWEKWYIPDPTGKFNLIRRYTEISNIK

[2] = target: T1, GLT8D1 (recombinant secretory glycosyltransferase 8 domain-containing protein 1); assay: UDP-Glo transferase assay; product by LC-MS/MS; format: biochemical; conditions: acceptor, 20 mM; UDP-Gal donor, 5 mM MnCl2, 50 mM Tris-HCl pH 7.5

Row | SMILES | ΔTm [1] | UDP-Glo transferase assay; product by LC-MS/MS [2]
1 | CC(=O)N[C@H]1C(O)O[C@H](CO)[C@H](O)[C@@H]1O (stereo partly drawn) [GalNAc] |  | With UDP-Gal as donor some transferase reaction was detected towards GalNAc and GlcNAc
2 | CC(=O)N[C@H]1[C@@H](OP(=O)(O)OP(=O)(O)OC[C@H]2O[C@@H](n3ccc(=O)[nH]c3=O)[C@H](O)[C@@H]2O)O[C@H](CO)[C@@H](O)[C@@H]1O [UDP-GlcNAc] | ~ 2 °C | 
3 | CC(=O)N[C@H]1C(O)O[C@H](CO)[C@@H](O)[C@@H]1O (stereo partly drawn) [GlcNAc] |  | With UDP-Gal as donor some transferase reaction was detected towards GalNAc and GlcNAc
4 | CC(=O)N[C@H]1[C@@H](OP(=O)(O)OP(=O)(O)OC[C@H]2O[C@@H](n3ccc(=O)[nH]c3=O)[C@H](O)[C@@H]2O)O[C@H](CO)[C@H](O)[C@@H]1O [UDP-GalNAc] | ~ 2 °C | 
5 | Nc1ccn([C@@H]2O[C@H](COP(=O)(O)O)[C@@H](O)[C@H]2O)c(=O)n1 [CMP] | + 1.3 °C | 

The next lines start with results.

Row | ΔTm [1] | SMILES | UDP-Glo transferase assay; product by LC-MS/MS [2]
6 | + 7.7 °C | Nc1nc2c(ncn2[C@@H]2O[C@H](COP(=O)(O)OP(=O)(O)O)[C@@H](O)[C@H]2O)c(=O)[nH]1 [GDP] | 
7 | + 11.2 °C | O=c1ccn([C@@H]2O[C@H](COP(=O)(O)OP(=O)(O)O)[C@@H](O)[C@H]2O)c(=O)[nH]1 [UDP] | 
8 | ~ 2 °C | O=c1ccn([C@@H]2O[C@H](COP(=O)(O)OP(=O)(O)O[C@H]3OC[C@@H](O)[C@H](O)[C@H]3O)[C@@H](O)[C@H]2O)c(=O)[nH]1 [UDP-Xyl] | 
9 | + 4.9 °C | O=C(O)[C@H]1O[C@H](OP(=O)(O)OP(=O)(O)OC[C@H]2O[C@@H](n3ccc(=O)[nH]c3=O)[C@H](O)[C@@H]2O)[C@H](O)[C@@H](O)[C@@H]1O [UDP-GlcA] | 
